According to US20260083865A1, “PROSTATE SPECIFIC MEMBRANE ANTIGEN (PSMA) LIGANDS AND USE THEREOF” (priority 2022, published 2026):
Read-outs that look alike come from different tables or passages of the source. Numbered stars: 1 amine (or outer) side, 2 acyl side, 3 side chain; on linkers, the order of the positions; unused ones are H or OH. Bridge positions count the residues as written; N and C are the ends. Square brackets hold non-standard residues; d marks the D form. Side chains are listed from the residue outwards. Peptide text beside a SMILES is read from it. * marks the point of attachment. DOTA = O=C(O)CN1CCN(CC(=O)O)CCN(CC(=O)*)CCN(CC(=O)O)CC1; Phe(4-Cl) = N[C@@H](Cc1ccc(Cl)cc1)C(=O)O; Arg(Me) = CNC(=N)NCCC[C@H](N)C(=O)O; Lys(iPr) = CC(C)NCCCC[C@H](N)C(=O)O; Ethylenediamine = C(CN[*:2])N[*:1]; X5 = O=C(c1ccc(CN[*:1])nc1)[*:2]; X1 = O=C(CC1CCN([*:1])CC1)[*:2]; Cit = NC(=O)NCCC[C@H](N)C(=O)O; Lys(Me) = CNCCCC[C@H](N)C(=O)O; Tle = CC(C)(C)[C@H](N)C(=O)O; X15 = O=C1NC(=O)C(CC(=O)*)N1; Orn = NCCC[C@H](N)C(=O)O; AEEA = NCCOCCOCC(=O)O; Aib = CC(C)(N)C(=O)O; CO = O=C([*:1])[*:2]; NHBu = CCCCN*

Assays:
[1] = molecular target: T1, PSMA-expressing C4-2 cells (Homo sapiens, UniProt Q04609); test: FACS binding assay (competition with 50 nM PSM-0183); details: C4-2 cells, read-out: pIC50 [C4-2] CAT (converted)
T1 construct: PSMA-expressing C4-2 cells (ATCC, Cat. No. CRL-3314) were cultured in RPMI-1640; host or cells: C4-2 cells
T1 sequence (Q04609 whole entry): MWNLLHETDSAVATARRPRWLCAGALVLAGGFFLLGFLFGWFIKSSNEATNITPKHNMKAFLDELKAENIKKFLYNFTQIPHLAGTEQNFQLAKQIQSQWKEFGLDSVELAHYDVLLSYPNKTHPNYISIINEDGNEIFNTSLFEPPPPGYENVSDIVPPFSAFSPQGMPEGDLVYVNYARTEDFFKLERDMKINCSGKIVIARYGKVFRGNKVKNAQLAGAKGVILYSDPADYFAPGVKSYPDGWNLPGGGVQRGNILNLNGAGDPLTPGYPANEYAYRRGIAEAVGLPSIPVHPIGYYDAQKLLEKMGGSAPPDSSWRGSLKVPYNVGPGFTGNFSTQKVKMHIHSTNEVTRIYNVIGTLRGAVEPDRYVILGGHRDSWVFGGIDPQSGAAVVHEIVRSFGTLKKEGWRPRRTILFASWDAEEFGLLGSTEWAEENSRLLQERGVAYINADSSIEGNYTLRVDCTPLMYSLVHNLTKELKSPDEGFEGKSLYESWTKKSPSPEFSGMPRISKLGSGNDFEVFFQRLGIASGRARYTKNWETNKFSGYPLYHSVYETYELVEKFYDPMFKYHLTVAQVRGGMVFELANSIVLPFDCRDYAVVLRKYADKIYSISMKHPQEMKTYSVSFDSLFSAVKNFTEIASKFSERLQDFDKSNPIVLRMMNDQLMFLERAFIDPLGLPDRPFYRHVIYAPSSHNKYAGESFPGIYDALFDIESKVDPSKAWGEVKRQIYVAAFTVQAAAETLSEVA
Method in brief: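 Competition format: fluorescent tracer PSM-0183 (50 nM) displaced from PSMA on C4-2 cells by a test compound titration over 1 h at 4 °C. Bound tracer was quantified as flow-cytometric AF488 median fluorescence after washing. Four-parameter logistic fits of MFI data gave IC50 and pIC50.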

[2] = molecular target: T2, Fc-fusion protein of human PSMA (hPSMA-Fc) (Homo sapiens, UniProt Q04609); test: Surface plasmon resonance assay (Biacore T200, single cycle kinetic); type: binding; details: hPSMA-Fc, 25° C., read-out: pKD CAT (converted)
T2 construct: purchased Acro Biosystems PSA-H5264
T2 sequence (Q04609 44-750 limits assumed): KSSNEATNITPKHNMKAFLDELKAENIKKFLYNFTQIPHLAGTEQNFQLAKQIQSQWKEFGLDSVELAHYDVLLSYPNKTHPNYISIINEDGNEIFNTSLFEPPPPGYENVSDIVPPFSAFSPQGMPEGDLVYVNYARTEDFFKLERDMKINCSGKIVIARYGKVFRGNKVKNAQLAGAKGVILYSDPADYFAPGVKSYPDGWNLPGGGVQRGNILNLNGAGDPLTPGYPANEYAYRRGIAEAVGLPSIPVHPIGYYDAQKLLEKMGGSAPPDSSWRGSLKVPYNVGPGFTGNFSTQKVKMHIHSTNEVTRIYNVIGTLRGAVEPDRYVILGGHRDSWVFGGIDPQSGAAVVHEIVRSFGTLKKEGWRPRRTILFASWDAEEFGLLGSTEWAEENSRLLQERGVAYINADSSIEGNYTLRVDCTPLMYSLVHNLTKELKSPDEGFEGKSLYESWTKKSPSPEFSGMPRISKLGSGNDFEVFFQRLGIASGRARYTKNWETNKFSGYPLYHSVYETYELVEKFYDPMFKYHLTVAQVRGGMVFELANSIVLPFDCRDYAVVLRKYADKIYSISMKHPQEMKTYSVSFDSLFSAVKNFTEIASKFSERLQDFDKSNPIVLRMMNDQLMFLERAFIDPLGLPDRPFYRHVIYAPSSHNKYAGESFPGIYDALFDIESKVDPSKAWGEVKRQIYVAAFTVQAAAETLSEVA
Method in brief: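 KD, expressed as pKD, came from 1:1 Langmuir fits of reference- and buffer-blank-subtracted SPR data. The runs were single-cycle kinetics at 25° C in HBST/0.1% DMSO over human PSMA-Fc, captured to ~1000 RU on a peptide-coated CM5 surface and regenerated with 10 mM glycine pH 1.5.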

[3] = FACS binding, competition with 50 nM PSM-0183, category
[4] = SPR, single cycle kinetic, category
[5] = pKD category for PSMA SPR activity assay

CC(=O)NCc1ccc(C(=O)NC(C)(C)C(=O)N[C@@H](Cc2ccc(Cl)cc2)C(=O)N[C@H]2CSSC[C@@H](C(=O)N[C@H](C(=O)NCCNC(=O)CN3CCN(CC(=O)O)CCN(CC(=O)O)CCN(CC(=O)O)CC3)C(C)(C)C)NC(=O)[C@H](CC(N)=O)NC(=O)C(C)(C)NC(=O)[C@H](CCCNC(=N)N)NC(=O)[C@H](CCCCN)NC2=O)cn1 [PSM-0186, Ac-Pamp-Aib-Pcf-[Cys-Lys-Arg-Aib-Asn-Cys]-Tle-en-DOTA] (Ac-[X5][Aib][Phe(4-Cl)]CKR[Aib]NC[Tle]-{Ethylenediamine-DOTA}; disulfide 4-9)
IC50 [1, 3]: < 200 nM | Kd [2, 4]: < 12.6 nM

CC(=O)N[C@H](C(=O)NC(C)(C)C(=O)N[C@@H](Cc1ccc(Cl)cc1)C(=O)N[C@H]1CSSC[C@@H](C(=O)N[C@H](C(=O)N[C@H](C(N)=O)[C@@H](C)O)C(C)(C)C)NC(=O)[C@H](CC(N)=O)NC(=O)[C@H](CCCCNC(=O)COCCOCCNC(=O)CN2CCN(CC(=O)O)CCN(CC(=O)O)CCN(CC(=O)O)CC2)NC(=O)[C@H](CCCNC(=N)N)NC(=O)[C@H](CCCCN)NC1=O)[C@@H](C)O [PSM-0370, Ac-Thr-Aib-Pcf-[Cys-Lys-Arg-Lys(DOTA-020c)-Asn-Cys]-Tle-Thr-NH2] (Ac-T[Aib][Phe(4-Cl)]CKRK([AEEA-DOTA])NC[Tle]T-NH2; disulfide 4-9)
IC50 ([1]; pIC50 category of FACS binding): < 200 nM | Kd [2, 5]: < 12.6 nM

CNC(=N)NCCC[C@@H]1NC(=O)[C@H](CCCCNC(C)C)NC(=O)[C@@H](NC(=O)[C@H](Cc2ccc(Cl)cc2)NC(=O)C(C)(C)NC(=O)[C@@H](NC(=O)CC2CCN(C(=O)CN3CCN(CC(=O)O)CCN(CC(=O)O)CCN(CC(=O)O)CC3)CC2)[C@@H](C)O)CSSC[C@@H](C(=O)N[C@H](C(=O)N[C@H](C(N)=O)[C@@H](C)O)C(C)(C)C)NC(=O)[C@H](CC(N)=O)NC(=O)C(C)(C)NC1=O [PSM-0244, DOTA-Cmp-Thr-Aib-Pcf-[Cys-Kip-Arg(Me)-Aib-Asn-Cys]-Tle-Thr-NH2] ({DOTA}-[X1]T[Aib][Phe(4-Cl)]C[Lys(iPr)][Arg(Me)][Aib]NC[Tle]T-NH2; disulfide 5-10)
IC50 [1, 3]: < 200 nM | Kd [2, 4]: < 12.6 nM

CNCCCC[C@@H]1NC(=O)[C@@H](NC(=O)[C@H](Cc2ccc(Cl)cc2)NC(=O)C(C)(C)NC(=O)[C@@H](NC(=O)CC2CCN(C(=O)CN3CCN(CC(=O)O)CCN(CC(=O)O)CCN(CC(=O)O)CC3)CC2)[C@@H](C)O)CSSC[C@@H](C(=O)N[C@H](C(N)=O)C(C)(C)C)NC(=O)[C@H](CC(N)=O)NC(=O)C(C)(C)NC(=O)[C@H](CCCNC(=N)NC)NC1=O [PSM-0380, DOTA-Cmp-Thr-Aib-Pcf-[Cys-Lys(Me)-Arg(Me)-Aib-Asn-Cys]-Tle-NH2] ({DOTA}-[X1]T[Aib][Phe(4-Cl)]C[Lys(Me)][Arg(Me)][Aib]NC[Tle]-NH2; disulfide 5-10)
IC50 ([1]; pIC50 category of FACS binding): < 200 nM | Kd [2, 5]: < 12.6 nM

CCCCNC(=O)N[C@H](C(=O)NC(C)(C)C(=O)N[C@@H](Cc1ccc(Cl)cc1)C(=O)N[C@H]1CSSC[C@@H](C(=O)N[C@H](C(=O)N[C@H](C(=O)N2CCC(CC(=O)N[C@H](CCCCNC(=O)CN3CCN(CC(=O)O)CCN(CC(=O)O)CCN(CC(=O)O)CC3)C(N)=O)CC2)[C@@H](C)O)C(C)(C)C)NC(=O)[C@H](CC(N)=O)NC(=O)C(C)(C)NC(=O)[C@H](CCCNC(N)=O)NC(=O)[C@H](CCCCN)NC1=O)[C@@H](C)O [PSM-0204, nBuCAyl-Thr-Aib-Pcf-[Cys-Lys-Cit-Aib-Asn-Cys]-Tle-Thr-Cmp-lys(DOTA)-NH2] ({NHBu-CO}-T[Aib][Phe(4-Cl)]CK[Cit][Aib]NC[Tle]T[X1][dK](DOTA)-NH2; disulfide 4-9)
IC50 [1, 3]: < 200 nM | Kd [2, 4]: 12.6 to 126 nM

C[C@@H](O)[C@H](NC(=O)[C@@H](NC(=O)[C@@H]1CSSC[C@H](NC(=O)[C@H](Cc2ccccc2)NC(=O)C(C)(C)NC(=O)CC2NC(=O)NC2=O)C(=O)N[C@@H](CCCCN)C(=O)N[C@@H](CCCNC(=N)N)C(=O)NC(C)(C)C(=O)N[C@@H](CC(N)=O)C(=O)N1)C(C)(C)C)C(N)=O (stereo partly drawn) [PSM-0518, HYDAc-Aib-Phe-[Cys-Lys-Arg-Aib-Asn-Cys]-Tle-Thr-NH2] (X15-[Aib]FCKR[Aib]NC[Tle]T-NH2; disulfide 3-8)
IC50 ([1]; pIC50 category of FACS binding): < 200 nM | Kd [2, 5]: < 12.6 nM

C[C@@H](O)[C@H](NC(=O)[C@@H](NC(=O)[C@@H]1CSSC[C@H](NC(=O)[C@H](Cc2ccc(Cl)cc2)NC(=O)C(C)(C)NC(=O)[C@@H](NC(=O)CC2CCN(C(=O)CN3CCN(CC(=O)O)CCN(CC(=O)O)CCN(CC(=O)O)CC3)CC2)[C@@H](C)O)C(=O)N[C@@H](CCCN)C(=O)N[C@@H](CCCNC(=N)N)C(=O)NC(C)(C)C(=O)N[C@@H](CC(N)=O)C(=O)N1)C(C)(C)C)C(N)=O [PSM-0511, DOTA-Cmp-Thr-Aib-Pcf-[Cys-Om-Arg-Aib-Asn-Cys]-Tle-Thr-NH2] ({DOTA}-[X1]T[Aib][Phe(4-Cl)]C[Orn]R[Aib]NC[Tle]T-NH2; disulfide 5-10)
IC50 ([1]; pIC50 category of FACS binding): < 200 nM | Kd [2, 5]: < 12.6 nM
